Measurements as given in US11633355B2, “Multi-functional particles and methods of using the same” (Clemson University Research Foundation, priority 2014, dated 2023).

What was measured:
[1] = Sirolimus and heparin loading in PgP micelles; assay type: physicochemical; settings: 0.45 μm filter
Method: 50 μl Hep-F (20 mg/ml) was added into PgP solution, followed by two more hours stirring. Methanol was allowed to evaporate overnight, and the solution was centrifuged at 15,000×RCF for 15 minutes. Supernatant containing unbound Hep-F was removed and the precipitated nanoparticle was collected, resuspended and then filtered using 0.45 μm sterile syringe filter to remove unloaded SR. The amount of Hep-F binding to PgP was measured using Hep-F standard curve. Fluorescence was measured using a microplate reader (Excitation: 494 nm Emission: 521 nm, Biotek, VT, USA). Loading efficiency for Hep was calculated as % loading efficiency=(amount of Hep bound to PgP/amount of Hep added to PgP)×100.
Sr-PgP-Hep was prepared sequential loading of SR and Hep in PgP. Briefly, SR solution (LC labs, USA) was loaded in the PgP using solvent evaporation method and Hep was added into SR-PgP solution. […] The amount of SR loaded in PgP micelles solution was measured by High Pressure Liquid Chromatography (HPLC) (Waters Corporation, USA) using SR standard curve prepared in acetonitrile (ACN). […] The loading efficiency was calculated as: % loading efficiency=amount of SR loaded/amount of SR added ×100. The amount of Hep bound to PgP was determined based on Hep-F loading as described above.

[2] = tested on: rat primary cerebellar neurons (CBN); assay: Neurite length of cerebellar neurons in in vitro hypoxia condition; assay type: cell-based; settings: hypoxia 24 hours, then treatment for additional 24 hrs
Method: To generate hypoxia condition as a SCI model in vitro, rat primary cerebellar neurons (CBN) were isolated from P3 pubs and plated on the PLL/Laminin coated well plate. After 3 days culture, the cells were incubated in hypoxia gas chamber (95% N2 and 5% 02) for 24 hours and then the cells were treated with Rm-PgP and PgP without rolipram. Cells treated with free rolipram dissolved in DMSO were used as a positive control and cells maintained under normal atmospheric conditions were used as a negative control. The cells were incubated an additional 24 hrs in hypoxia condition and then fixed for neurite length evaluation. The neurite lengths were measured using ImageJ software program after β-3 tubulin staining.

CO[C@H]1C[C@@H]2CC[C@@H](C)[C@@](O)(O2)C(=O)C(=O)N2CCCC[C@H]2C(=O)O[C@H]([C@H](C)C[C@@H]2CC[C@@H](O)[C@H](OC)C2)CC(=O)[C@H](C)/C=C(\C)[C@@H](O)[C@@H](OC)C(=O)[C@H](C)C[C@H](C)/C=C/C=C/C=C/1C [sirolimus]
SR added in water without PgP, detection by HPLC after filtration [1]: not detected

COc1ccc(C2CNC(=O)C2)cc1OC1CCCC1 (centres unmarked) [free Rm, rolipram]
neurite length compared with normoxia [2]: not significantly different
